The source of these data is US9879041B2, “Saccharide dendritic cluster compounds as inhibitors of BACE-1” (Victoria Link Limited, priority 2012, dated 2018).

pIC50: −log10 of the molar value.

Series [1] has as its target T1, recombinant human BACE-1 (Homo sapiens, UniProt P56817).
T1 construct: purchased R & D Systems 931-AS
The experiment in a line: BACE-1 inhibition by in vitro FRET peptide cleavage assay. The format is biochemical. The note with it: pH 4.5, 1 h, 25° C. As to the method:
The ability of compounds of the invention to inhibit BACE-1 cleavage of APP is assessed using a fluorescent resonance energy transfer (FRET) peptide cleavage assay employing the FRET peptide HiLyte 488-Glu-Val-Asn-Leu-Asp-Ala-Glu-Phe-Lys(QXL520)-OH (Anaspec, Inc., CA, USA; Cat no. 60604-01). When intact, the amino terminal fluorophore is quenched, but upon enzymatic cleavage the fluorophore is released from quencher and fluoresces (520 nm). Assays are performed in triplicate in 96 well black plates (20 mM sodium acetate, 0.1% Triton-X-100, pH 4.5; 2.2 ng peptide per well and 25 ng/well of recombinant human BACE-1 (R & D Systems Cat no. 931-AS). The appropriate controls for enzyme activity (substrate plus enzyme, and substrate only) are employed and plates are incubated (1 h, 25° C., with activity stopped with 2.5 M sodium acetate). Compounds of the invention are added in the concentration range from 100-0.0001 μg/mL. Fluorescence 480ex/520em is measured on a Polarstar plate reader (BMG LabTechnologies, UK) and data are analysed by plotting log10 concentration of compound against percent inhibition and fitting a logistic dose response sigmoidal curve using OriginPro 8 (OriginLabs, Mass, USA).

For series [2], the target named is T2, bovine Factor Xa (Bos taurus, UniProt P00743).
T2 construct: purchased Thermo Scientific 32521
T2 sequence (P01008 33-464 partner): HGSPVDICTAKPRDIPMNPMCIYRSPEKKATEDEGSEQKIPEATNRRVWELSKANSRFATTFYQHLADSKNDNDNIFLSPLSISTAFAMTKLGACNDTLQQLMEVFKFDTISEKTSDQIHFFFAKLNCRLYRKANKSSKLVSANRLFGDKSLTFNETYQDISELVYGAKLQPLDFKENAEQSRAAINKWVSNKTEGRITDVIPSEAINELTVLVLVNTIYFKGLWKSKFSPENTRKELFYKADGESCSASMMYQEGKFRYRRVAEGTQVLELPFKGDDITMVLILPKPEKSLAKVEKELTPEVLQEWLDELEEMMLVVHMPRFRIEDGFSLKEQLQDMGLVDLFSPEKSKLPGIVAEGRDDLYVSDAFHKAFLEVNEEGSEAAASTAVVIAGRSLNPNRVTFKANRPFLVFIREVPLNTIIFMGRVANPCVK
T2 sequence (P00743 234-492 limits assumed): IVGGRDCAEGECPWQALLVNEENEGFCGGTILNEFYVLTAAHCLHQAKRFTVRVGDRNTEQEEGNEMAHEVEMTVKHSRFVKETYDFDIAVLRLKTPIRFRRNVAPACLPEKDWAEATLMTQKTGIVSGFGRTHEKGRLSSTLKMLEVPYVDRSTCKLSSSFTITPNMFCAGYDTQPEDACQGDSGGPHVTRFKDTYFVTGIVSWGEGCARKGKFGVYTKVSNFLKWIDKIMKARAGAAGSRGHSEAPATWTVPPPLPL
The experiment in a line: Factor Xa anticoagulant assay (antithrombin-III mediated inactivation of Factor Xa). Particulars: dose range 0.004 to 50 μg/ml. In kind it is biochemical. Here is the method: The plate is incubated for two minutes at 37° C. […] 19 μl of 2.5 mM chromogenic substrate (American Diagnostica Inc. Spectrozyme FXa Product No 222L) in assay buffer is added to each well and incubated for 2 hours at 37° C., followed by addition of 5 μl of 30% acetic acid to each well. Absorbance at 405 nm is read on a multiplate reader.

Series [3] has as its system Aβ1-40. Put plainly: Brain slice assay, soluble Aβ1-40 in medium by ELISA. In kind it is cell-based, Transgenic TG2576 mice. The note with it: TG2576 mouse brain slices; 1, 10 and 100 μg/ml; 96 hours vs. 48 hours. Here is the method: Transgenic TG2576 mice expressing the human SWE-mutated amyloid precursor protein are sacrificed by cervical dislocation at 8-10 months of age. The brain is removed and 400 μm coronal sections are obtained using a manual tissue chopper (Leica Microsystems). Slices are washed briefly in HBSS (Hank balanced salt solution, Life Technologies) supplemented with 4.5 mg/ml glucose (Sigma-Aldrich) and 3.75 μg/ml amphotericin B (Sigma-Aldrich) and transferred to a transwell plate (Costar 3396 HTS 24 well transwell plate with 0.4 μm polycarbonate membrane) in 1 ml of 50% MEM (minimal essential medium, Life Technologies) supplemented with 25% heat-inactivated horse serum (Life Technologies), 25% HBSS, 0.5 mM glutamine (Life Technologies), 4.5 mg/ml glucose and 3.75 μg/ml amphotericin B. Slices are incubated 48 hours at 37 C, 5% CO2. […] Soluble Aμ1-40 in the medium is quantified using a SensoLyte™ Anti-Human βeta-Amyloid (1-40) ELISA kit (Anaspec) in accordance with the manufacturer's instructions. […] The color reaction is stopped with 50 μl of Stop Solution and the plate is read at 450 nm using an absorbance plate reader (Thermo Multiskan EX). The amount of Aβ-40 is quantified by reference to a standard curve of Aβ1-40 (supplied in the SensoLyte™ kit). Data are expressed as a percentage of the Aβ1-40 present at 96 hours vs. 48 hours for each condition.
On the technique in general: An ELISA detects its analyte on a solid surface through an enzyme-linked reagent.

T1 sequence (P56817 46-501): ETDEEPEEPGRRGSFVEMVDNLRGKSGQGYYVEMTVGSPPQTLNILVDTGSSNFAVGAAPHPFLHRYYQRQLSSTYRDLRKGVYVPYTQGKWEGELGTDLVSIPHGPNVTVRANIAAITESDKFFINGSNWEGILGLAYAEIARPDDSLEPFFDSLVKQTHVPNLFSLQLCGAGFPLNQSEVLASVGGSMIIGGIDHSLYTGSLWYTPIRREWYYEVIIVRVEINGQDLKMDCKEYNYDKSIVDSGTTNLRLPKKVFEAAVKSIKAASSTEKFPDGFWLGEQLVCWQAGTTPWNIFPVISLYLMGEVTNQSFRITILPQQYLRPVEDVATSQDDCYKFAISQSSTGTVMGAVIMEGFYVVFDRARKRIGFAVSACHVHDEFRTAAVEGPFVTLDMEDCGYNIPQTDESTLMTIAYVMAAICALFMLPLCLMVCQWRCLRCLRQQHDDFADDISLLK

By pIC50 is commonly meant the negative decadic logarithm of the IC50, by convention in mol/L. `CC(=O)NC1C(OC2C(C(=O)O)OC(OCCCCCCNC(=O)CCCCCCCNC(=O)CCOCC(COCCC(=O)NCCCCCCCC(=O)NCCCCCCOC3OC(C(=O)O)C(OC4OC(COS(=O)(=O)O)C(O)C(O)C4NC(C)=O)C(O)C3O)(COCCC(=O)NCCCCCCCC(=O)NCCCCCCOC3OC(C(=O)O)C(OC4OC(COS(=O)(=O)O)C(O)C(O)C4NC(C)=O)C(O)C3O)COCCC(=O)NCCCCCCCC(=O)NCCCCCCOC3OC(C(=O)O)C(OC4OC(COS(=O)(=O)O)C(O)C(O)C4NC(C)=O)C(O)C3O)C(O)C2O)OC(COS(=O)(=O)O)C(O)C1O` (stereo not shown) [Compound 18b]: the pIC50 in series [1] was ~5.51. Further, the “ability to accelerate antithrombin-III mediated inactivation of Factor Xa, as measured by cleavage of a peptide substrate” value (“ability … of a peptide substrate” below) in series [2] is recorded as “do not display any measurable ability”.

As to `CC(=O)NC1C(OC2C(C(=O)O)OC(OCCCCCCNC(=O)CCCCCCCNC(=O)CCOCC(COCCC(=O)NCCCCCCCC(=O)NCCCCCCOC3OC(C(=O)O)C(OC4OC(COS(=O)(=O)O)C(O)C(O)C4NC(C)=O)C(O)C3O)(COCCC(=O)NCCCCCCCC(=O)NCCCCCCOC3OC(C(=O)O)C(OC4OC(COS(=O)(=O)O)C(O)C(O)C4NC(C)=O)C(O)C3O)COCCC(=O)NCCCCCCCC(=O)NCCCCCCOC3OC(C(=O)O)C(OC4OC(COS(=O)(=O)O)C(O)C(O)C4NC(C)=O)C(O)C3O)C(O)C2O)OC(COS(=O)(=O)O)C(O)C1O` (stereo not shown) [Compound 18a], the “ability to lower amounts of Aβ1-40 in brain slices” value in series [3] is on record as “demonstrate the ability to lower amounts of Aβ1-40”.

In the case of `CC(=O)NC1C(OC2C(C(=O)O)OC(OCCCCCCNC(=O)CCCCCCCNC(=O)CCOCC(COCCC(=O)NCCCCCCCC(=O)NCCCCCCOC3OC(C(=O)O)C(OC4OC(COS(=O)(=O)O)C(O)C(O)C4NC(C)=O)C(O)C3OS(=O)(=O)O)(COCCC(=O)NCCCCCCCC(=O)NCCCCCCOC3OC(C(=O)O)C(OC4OC(COS(=O)(=O)O)C(O)C(O)C4NC(C)=O)C(O)C3OS(=O)(=O)O)COCCC(=O)NCCCCCCCC(=O)NCCCCCCOC3OC(C(=O)O)C(OC4OC(COS(=O)(=O)O)C(O)C(O)C4NC(C)=O)C(O)C3OS(=O)(=O)O)C(OS(=O)(=O)O)C2O)OC(COS(=O)(=O)O)C(O)C1O` (stereo not shown) [Compound 20a], the pIC50 in series [1] was ~7.85.

For the compound `CC(=O)NC1C(OCCCCCCNC(=O)CCOCC(COCCC(=O)NCCCCCCOC2OC(COS(=O)(=O)O)C(O)C(O)C2NC(C)=O)(COCCC(=O)NCCCCCCOC2OC(COS(=O)(=O)O)C(O)C(O)C2NC(C)=O)COCCC(=O)NCCCCCCOC2OC(COS(=O)(=O)O)C(O)C(O)C2NC(C)=O)OC(COS(=O)(=O)O)C(O)C1O` (stereo not shown) [Compound 18e], the pIC50 in series [1] was ~4.59. The “ability … of a peptide substrate” value in series [2] is “do not display any measurable ability”.

For `CC(=O)NC1C(OC2C(C(=O)O)OC(OC3C(COS(=O)(=O)O)OC(OC4C(C(=O)O)OC(OCCCCCCNC(=O)CCCCCCCNC(=O)CCOCC(COCCC(=O)NCCCCCCCC(=O)NCCCCCCOC5OC(C(=O)O)C(OC6OC(COS(=O)(=O)O)C(OC7OC(C(=O)O)C(OC8OC(COS(=O)(=O)O)C(O)C(O)C8NC(C)=O)C(O)C7OS(=O)(=O)O)C(O)C6NC(C)=O)C(O)C5OS(=O)(=O)O)(COCCC(=O)NCCCCCCCC(=O)NCCCCCCOC5OC(C(=O)O)C(OC6OC(COS(=O)(=O)O)C(OC7OC(C(=O)O)C(OC8OC(COS(=O)(=O)O)C(O)C(O)C8NC(C)=O)C(O)C7OS(=O)(=O)O)C(O)C6NC(C)=O)C(O)C5OS(=O)(=O)O)COCCC(=O)NCCCCCCCC(=O)NCCCCCCOC5OC(C(=O)O)C(OC6OC(COS(=O)(=O)O)C(OC7OC(C(=O)O)C(OC8OC(COS(=O)(=O)O)C(O)C(O)C8NC(C)=O)C(O)C7OS(=O)(=O)O)C(O)C6NC(C)=O)C(O)C5OS(=O)(=O)O)C(OS(=O)(=O)O)C4O)C(NC(C)=O)C3O)C(OS(=O)(=O)O)C2O)OC(COS(=O)(=O)O)C(O)C1O` (stereo not shown) [Compound 20c], the negative-log IC50 (pIC50) in series [1] is ~8.76. For the same compound, the “ability … of a peptide substrate” value in series [2] was “do not display any measurable ability”.

`CC(=O)NC1C(OC2C(C(=O)O)OC(OCCCCCCNC(=O)CCCCCCCNC(=O)CCOCC(COCCC(=O)NCCCCCCCC(=O)NCCCCCCOC3OC(C(=O)O)C(OC4OC(COS(=O)(=O)O)C(O)C(O)C4NC(C)=O)C(O)C3OS(=O)(=O)O)(COCCC(=O)NCCCCCCCC(=O)NCCCCCCOC3OC(C(=O)O)C(OC4OC(COS(=O)(=O)O)C(O)C(O)C4NC(C)=O)C(O)C3OS(=O)(=O)O)COCCC(=O)NCCCCCCCC(=O)NCCCCCCOC3OC(C(=O)O)C(OC4OC(COS(=O)(=O)O)C(O)C(O)C4NC(C)=O)C(O)C3OS(=O)(=O)O)C(OS(=O)(=O)O)C2O)OC(COS(=O)(=O)O)C(O)C1O` (stereo not shown) [Compound 20b]: the pIC50 in series [1] is ~7.25. For the same compound, the “ability … of a peptide substrate” value in series [2] is recorded as “do not display any measurable ability”.

Regarding `CC(=O)NC1C(OC2C(C(=O)O)OC(OC3C(COS(=O)(=O)O)OC(OC4C(C(=O)O)OC(OCCCCCCNC(=O)CCCCCCCNC(=O)CCOCC(COCCC(=O)NCCCCCCCC(=O)NCCCCCCOC5OC(C(=O)O)C(OC6OC(COS(=O)(=O)O)C(OC7OC(C(=O)O)C(OC8OC(COS(=O)(=O)O)C(O)C(O)C8NC(C)=O)C(O)C7O)C(O)C6NC(C)=O)C(O)C5O)(COCCC(=O)NCCCCCCCC(=O)NCCCCCCOC5OC(C(=O)O)C(OC6OC(COS(=O)(=O)O)C(OC7OC(C(=O)O)C(OC8OC(COS(=O)(=O)O)C(O)C(O)C8NC(C)=O)C(O)C7O)C(O)C6NC(C)=O)C(O)C5O)COCCC(=O)NCCCCCCCC(=O)NCCCCCCOC5OC(C(=O)O)C(OC6OC(COS(=O)(=O)O)C(OC7OC(C(=O)O)C(OC8OC(COS(=O)(=O)O)C(O)C(O)C8NC(C)=O)C(O)C7O)C(O)C6NC(C)=O)C(O)C5O)C(O)C4O)C(NC(C)=O)C3O)C(O)C2O)OC(COS(=O)(=O)O)C(O)C1O` (stereo not shown) [Compound 18c], the pIC50 in series [1] was ~7.40. Moreover, the “ability … of a peptide substrate” value in series [2] is given as “do not display any measurable ability”.

As for `CC(=O)NC1C(OCCCCCCNC(=O)CCCCCCCNC(=O)CCOCC(COCCC(=O)NCCCCCCCC(=O)NCCCCCCOC2OC(COS(=O)(=O)O)C(O)C(O)C2NC(C)=O)(COCCC(=O)NCCCCCCCC(=O)NCCCCCCOC2OC(COS(=O)(=O)O)C(O)C(O)C2NC(C)=O)COCCC(=O)NCCCCCCCC(=O)NCCCCCCOC2OC(COS(=O)(=O)O)C(O)C(O)C2NC(C)=O)OC(COS(=O)(=O)O)C(O)C1O` (stereo not shown) [Compound 18h], the pIC50 in series [1] was 5.70 to 6.10. The “ability … of a peptide substrate” value in series [2] is given as “do not display any measurable ability”.

Regarding `O=C(CCCCCCCNC(=O)CCOCC(COCCC(=O)NCCCCCCCC(=O)NCCCCCCOC1OC(C(=O)O)C(OC2OC(COS(=O)(=O)O)C(OC3OC(C(=O)O)C(OC4OC(COS(=O)(=O)O)C(O)C(O)C4NS(=O)(=O)O)C(O)C3OS(=O)(=O)O)C(O)C2NS(=O)(=O)O)C(O)C1OS(=O)(=O)O)(COCCC(=O)NCCCCCCCC(=O)NCCCCCCOC1OC(C(=O)O)C(OC2OC(COS(=O)(=O)O)C(OC3OC(C(=O)O)C(OC4OC(COS(=O)(=O)O)C(O)C(O)C4NS(=O)(=O)O)C(O)C3OS(=O)(=O)O)C(O)C2NS(=O)(=O)O)C(O)C1OS(=O)(=O)O)COCCC(=O)NCCCCCCCC(=O)NCCCCCCOC1OC(C(=O)O)C(OC2OC(COS(=O)(=O)O)C(OC3OC(C(=O)O)C(OC4OC(COS(=O)(=O)O)C(O)C(O)C4NS(=O)(=O)O)C(O)C3OS(=O)(=O)O)C(O)C2NS(=O)(=O)O)C(O)C1OS(=O)(=O)O)NCCCCCCOC1OC(C(=O)O)C(OC2OC(COS(=O)(=O)O)C(OC3OC(C(=O)O)C(OC4OC(COS(=O)(=O)O)C(O)C(O)C4NS(=O)(=O)O)C(O)C3OS(=O)(=O)O)C(O)C2NS(=O)(=O)O)C(O)C1OS(=O)(=O)O` (stereo not shown) [Compound 22a], the pIC50 in series [1] is ~8.78. Moreover, the “ability … of a peptide substrate” value in series [2] is given as “do not display any measurable ability”.
